The values that follow come from patent publication US12459951B2, “Compounds that interact with RAS superfamily proteins for treatment of cancers, inflammatory diseases, rasopathies, and fibrotic disease” (SHY Therapeutics, LLC, priority 2022, dated 2025).

The structures appear in SMILES notation.

The subject of experiment [1] is BT-20 (expressing wild type KRas). Briefly: Proliferation Assay (Cell Viability Assay). It is filed as cell-based. As to conditions: Homo sapiens; BT-20, Breast (TNBC), KRas WT. The gist of the method:
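Cells plated at 2000–5000/well overnight, then treated 2–4 days at 37 °C, 5% CO2 with compound at 10 μM single dose or serial dilutions for IC50, in 0.3% DMSO and 10% FBS. Viability read by CellTiter 96 Aqueous One (MTS); % proliferation inhibition calculated from raw data.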

In experiment [2] the test system is Panc-1 (expressing KRas G12D mutant). The experiment is described as follows: Proliferation Assay (Cell Viability Assay). It is filed as cell-based. As to conditions: Homo sapiens, Panc1, pancreatic. On the procedure: (§1) Cell lines: Human tumor-derived cell lines were purchased from American Type Culture Collection. Human tumor-derived pancreatic cancer cell line MiaPaca-2 (expressing KRAS G12C mutant) and Panc-1 (expressing KRas G12D mutant), and Human non-small cell lung cancer (NSCLC) cell line A549 (expressing KRas G12S mutant) were grown in complete DMEM-High Glucose medium. Human colon cancer cell line SW-620 (expressing KRas G12V mutant) was grown in RPMI 1640 medium. All cell lines were supplemented with penicillin (100 U/mL), streptomycin (100 μg/mL), and 10% heat-inactivated FBS at 37° C. in a humidified incubator with 5% CO2.
(§2) Method: Cells were plated at 2000 to 5000 cells/well density in 96-wells plate and cultured overnight. Small molecules to be tested were added to the cells in the final concentration of 10 μM in the presence of 0.3% DMSO and 10% FBS and incubated for 2-4 days at 37° C. in a humidified incubator with 5% CO2. For IC50 value determination, serial dilutions of compounds were added to cells under the same conditions.
(§3) Assay: At the end of the incubation period, cell viability was determined using the CellTiter 96® Aqueous One Solution Cell Proliferation Assay according to manufacturer specifications (Promega, Madison, WI). The percentage of small molecules inhibition of cellular proliferation was calculated from raw data.
(§4) Cell lines: these Human tumor-derived cell lines were purchased from American Type Culture Collection. Human tumor-derived pancreatic cancer cell line MiaPaca-2 (expressing KRAS G12C mutant) and Panc-1 (expressing KRas G12D mutant), and Human non-small cell lung cancer (NSCLC) cell line A549 (expressing KRas G12S mutant), and Human melanoma cell line A375 (wild type Kras) were grown in complete DMEM-High Glucose medium. Human tumor-derived pancreatic cancer cell lines SU86.86 (expressing KRas G12D mutant), BxPC3 (expressing wild type K-Ras), and Human non-small cell lung cancer (NSCLC) cell lines NCI-H441 (expressing KRas G12S mutant), NCI-H1975 (expressing wild type KRas), NCI-H358 (expressing KRas G12C mutant), NCI-H1299 (expressing NRas Q61H mutant), and Human colon cancer cell line SW-620 (expressing KRas G12V mutant), Human triple negative breast cancer cell line HCC-1806 (expressing wild type KRas), and Human tumor-derived multiple myeloma cell line MM.1R (expressing wild type KRAS), were grown in RPMI 1640 medium. Human tumor-derived breast cancer cell line BT-549 (expressing wild type KRAS) was grown in RPMI 1640 medium in the presence of 11.8U insulin. Human tumor-derived pancreatic cancer cell line HPAF-II (expressing KRas G12D mutant), Human triple negative breast cancer cell line BT-20 (expressing wild type KRas), and Human colon cancer cell line LS123 (expressing KRas G12S mutant), were grown in EMEM medium. Human tumor-derived pancreatic cancer cell line CF-PAC1 (expressing KRas G12V mutant) was frown in IMDM medium, and Human colon cancer cell line HT29 (expressing wild type KRas) was grown in McCoy's 5A medium. The colon cancer cell line GP2d (expressing KRas G12D mutant) was purchased from MilliporeSigma and grown in DMEM-High Glucose medium. All cell lines were supplemented with penicillin (100 U/mL), streptomycin (100 μg/mL), and 10% heat-inactivated FBS at 37° C. in a humidified incubator with 5% CO2.
(§5) Method: Cells were plated at 2000 to 5000 cells/well density in 96-wells plate and cultured overnight. Small molecules that were tested were added to the cells in the final concentration of 10 μM in the presence of 0.3% DMSO and 10% FBS, and incubated for 2-4 days at 37° C. in a humidified incubator with 5% CO2. For IC50 value determination, serial dilutions of compounds were added to cells under the same conditions.

For experiment [3], the system named is SW-620 (expressing KRas G12V mutant). Briefly: Proliferation Assay (Cell Viability Assay). The settings on record: Homo sapiens, SW-620, colon. Type of experiment: cell-based. The protocol: as §1, §2, §3, §4, §5
The test system of experiment [4] is A549 (expressing KRas G12S mutant). Briefly: Proliferation Assay (Cell Viability Assay). It is filed as cell-based. The settings on record: Homo sapiens, A549, NSCLC. On the procedure: as §1, §2, §3, §4, §5
For another experiment, the system named is active/cleaved caspase 3. The experiment is described as follows: Cell-based caspase activation assay (western blot). The arrangement: species or system human. On the procedure: Biological Example 4: Puma Expression and Caspases Activation Assay
Protocols for Cell-Based Puma Expression and Caspase Activation Assays
Cell lines: All human tumor-derived cancer cell lines were purchased from American Type Culture Collection. Human tumor-derived cancer cell lines Panc-1 (expressing KRas G12D mutant), MiaPaca-2 (expressing KRas G12C mutant), A549 (expressing KRas G12S mutant), and A375 (expressing wild type KRas) were grown in complete DMEM-High Glucose medium and NCI-H1975 (expressing wild type KRas), MM.1R (expressing wild type KRas) and IM.9 (expressing wild type KRas) were grown in RPMI1640 medium. Human tumor-derived cancer cell line BT-549 (expressing wild type KRas) was grown in RPMI1640 medium with 11.8U insulin. All mediums were supplemented with penicillin (100 U/mL), streptomycin (100 μg/mL), and 10% heat-inactivated FBS at 37° C. in a humidified incubator with 5% CO2.
Method: Cells were plated at 300,000 to 800,000 cells/well density in a 6-well plate in the presence of 10% FBS. The next day small molecules to be tested were added to the cells in the final concentration of 3 μM in the presence of 0.3% DMSO for 48 hours incubation at 37° C. For IC50 value determination, serial dilutions of compounds were added to cells under the same conditions. Following 48 hours of incubation cells were lysed with lysis buffer containing 1% Triton X-100, EDTA, and Halt™ Protease & Phosphatase Inhibitor Cocktail (Thermo Scientific). Protein concentration was assessed by BCA protein assay (Thermo Scientific). Increase expression of PUMA and active/cleaved forms of caspase 3, caspase 6 and caspase 9 were detected by western blot.
Western blot protocol: Equal amounts of protein (15-50 μg) were separated by SDS-PAGE and transferred to nitrocellulose membranes (Invitrogen by Thermo Fisher Scientific). The membrane was stained with Ponceau S Stain (Boston BioProducts) to verify uniform protein loading. Membranes were blocked with 10% milk and expression levels of PUMA was assessed by incubating overnight at 4° C. with the antibody PUMA (D30C10) from Cell Signaling Technology (#12450) and active/cleaved forms of caspase 3, caspase 6 and caspase 9 by incubating overnight at 4° C. with the following antibodies: cleaved caspase-3 (Asp175) (5A1E), cleaved caspase-6 (Asp162) and cleaved caspase-9 (Asp330) (D2D4) (all antibodies from Cell Signaling Technology). Then the membranes were incubated with HRP-conjugated secondary antibody (Jackson Immunoresearch, West Grove, PA). Bands were incubated in Amersham ECL Prime Western Blotting Detection Reagent (GE Healthcare) and visualized using the ChemiDoc MP imaging system (Bio-Rad).
(In general: A western blot detects proteins with antibodies after separation by electrophoresis.)

What is called IC50 is the midpoint of a concentration-inhibition curve. A higher IC50 goes with weaker potency in that assay. Consider `COc1ccnc(Nc2nc(-c3nccn3C)nn3cc(-c4ccn(C(C)C)n4)c(C)c23)c1` [Compound 58, 6-(1-Isopropyl-1H-pyrazol-3-yl)-N-(4-methoxypyridin-2-yl)-5-methyl-2-(1-methyl-1H-imidazol-2-yl)pyrrolo[2,1-f][1,2,4]triazin-4-amine], for which the half-maximal inhibitory concentration (IC50) in experiment [1], in experiment [2], in experiment [3] and in experiment [4] was < 0.15 µM each time. Further, the “Caspase 3 activation” value in the experiment with active/cleaved caspase 3 (A549, after 48 hours) was “yes”; in the experiment with active/cleaved caspase 3 (BT-549, after 48 hours) it was “yes”; in the experiment on active/cleaved caspase 3 (MiaPaca2, after 48 hours), “yes”.
